From patent US7208515B2, “Diphenylmethyl compounds useful as muscarinic receptor antagonists” (Theravance, Inc., priority 2004, dated 2007)

Tests used:
[1] = biological target: T1, hM2 receptor (CHO-K1 cells) (Homo sapiens, UniProt P08172); test: Blockade of agonist-mediated [35S]GTPγS binding; assay type: biochemical; conditions: CHO-K1 cells expressing the hM2 receptor; read-out: Ki value for blockade of oxotremorine-stimulated [35S]GTPγS binding
T1 construct: expressed in transfected cells; host or cells: CHO-K1 cells
T1 sequence (P08172 1-466): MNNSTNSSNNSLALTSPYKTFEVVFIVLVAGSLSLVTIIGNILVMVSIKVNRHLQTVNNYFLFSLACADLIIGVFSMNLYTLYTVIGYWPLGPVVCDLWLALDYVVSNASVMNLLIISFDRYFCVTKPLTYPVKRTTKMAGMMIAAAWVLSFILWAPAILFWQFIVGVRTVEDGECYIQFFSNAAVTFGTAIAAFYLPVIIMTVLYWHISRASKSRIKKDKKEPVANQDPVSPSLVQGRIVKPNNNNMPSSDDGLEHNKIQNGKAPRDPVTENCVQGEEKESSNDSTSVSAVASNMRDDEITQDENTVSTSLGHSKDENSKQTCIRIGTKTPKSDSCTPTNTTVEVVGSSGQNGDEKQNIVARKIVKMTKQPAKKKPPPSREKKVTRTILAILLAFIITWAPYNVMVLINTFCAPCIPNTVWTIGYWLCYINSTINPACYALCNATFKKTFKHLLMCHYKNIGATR
Method: B. Blockade of Agonist-Mediated [^35S]GTPγS Binding
In a second functional assay, the functional potency of test compounds can be determined by measuring the ability of the compounds to block oxotremorine-stimulated [^35S]GTPγS binding in CHO-K1 cells expressing the hM2 receptor.
At the time of use, frozen membranes were thawed and then diluted in assay buffer with a final target tissue concentration of 5–10 μg protein per well. The membranes were briefly homogenized using a Polytron PT-2100 tissue disrupter and then added to the assay plates.
The EC90 value (effective concentration for 90% maximal response) for stimulation of [^35S]GTPγS binding by the agonist oxotremorine was determined in each experiment.
To determine the ability of a test compound to inhibit oxotremorine-stimulated [^35S]GTPγS binding, the following was added to each well of 96 well plates: 25 μL of assay buffer with [^35S]GTPγS (0.4 nM), 25 μL of oxotremorine(EC90) and GDP (3 μM), 25 μL of diluted test compound and 25 μL CHO cell membranes expressing the hM2 receptor. […] Microscint-20 scintillation liquid (50 μL) was added to each well, and each plate was sealed and radioactivity counted on a topcounter (PerkinElmer). Data were analyzed by nonlinear regression analysis with the GraphPad Prism Software package (GraphPad Software, Inc., San Diego, Calif.) using the non-linear regression, one-site competition equation. […]

[2] = tested on: pilocarpine-evoked salivation; test: Inhalation guinea pig salivation assay; assay type: in vivo
Method: Inhalation Guinea Pig Salivation Assay
Guinea pigs (Charles River, Wilmington, Mass.) weighing 200–350 g were acclimated to the in-house guinea pig colony for at least 3 days following arrival. Test compound or vehicle were dosed via inhalation (IH) over a 10 minute time period in a pie shaped dosing chamber (R&S Molds, San Carlos, Calif.). Test solutions were dissolved in sterile water and delivered using a nebulizer filled with 5.0 mL of dosing solution. Guinea pigs were restrained in the inhalation chamber for 30 minutes. During this time, guinea pigs were restricted to an area of approximately 110 sq. cm. […] Upon completion of nebulization, guinea pigs were evaluated at 1.5, 6, 12, 24, 48, or 72 hrs after treatment.
Guinea pigs were anesthetized one hour before testing with an intramuscular (IM) injection of a mixture of ketamine 43.75 mg/kg, xylazine 3.5 mg/kg, and acepromazine 1.05 mg/kg at an 0.88 mL/kg volume. […] Saliva was collected for 10 minutes, at which point the gauze pad was weighed and the difference in weight recorded to determine the amount of accumulated saliva (in mg). The mean amount of saliva collected for animals receiving the vehicle and each dose of test compound was calculated. […] Results were calculated using result means (n=3 or greater). Confidence intervals (95%) were calculated for each dose at each time point using two-way ANOVA. […]

- Ki [1]: < 0.1 µM
Structure (SMILES): CNCC(=O)NCCCCCN1CC[C@@H](C(C(N)=O)(c2ccccc2)c2ccccc2)C1 [Example 1]
- apparent lung selectivity index (ratio of anti-sialagogue ID50 to bronchoprotective ID50) [2]: greater than 5
